Test results as given in ChEMBL document CHEMBL3580531, “Biotransformation of Curcumenol by Mucor polymorphosporus” (J Nat Prod, 2015).

Test system: RAW264.7
Assay: Antiinflammatory activity in mouse RAW264.7 cells assessed as inhibition of LPS-induced nitric oxide production after 1 day by Griess assay
Assay type: functional, cell-based
Conditions: RAW264.7, 24 h

Row | SMILES | IC50 [µM]
1 | CC1=C[C@@]2(O)O[C@@]3(C/C2=C(/C)CO)[C@@H](C)CC[C@@H]13 | 9.6
2 | COc1ccc2c(c1)c(CC(=O)O)c(C)n2C(=O)c1ccc(Cl)cc1 [INDOMETHACIN] | 14.1
3 | CC(C)=C1C[C@@]23O[C@]1(O)C[C@](C)(O)[C@@H]2CC[C@@H]3C | > 50
4 | Cc1cc(=O)c(C(C)(C)O)cc2c1C(=O)C[C@@H]2C | 6.4
5 | Cc1cc(C(=O)O)cc2c1C(=O)C[C@@H]2C | 2.8
6 | CC1=C[C@@]2(O)O[C@]3(CC2=C(C)C)[C@H]1[C@H](O)C[C@@H]3C | 18.5
7 | CC(C)=C1C[C@@]23O[C@]1(O)C=C(CO)[C@@H]2CC[C@@H]3C | 6.4
8 | CC1=C[C@]2(O)O[C@@]3(CC2=C(C)C)[C@@H](C)CC[C@@H]13 [CURCUMENOL] | 5.4
